Measured values published in patent US20030018027A1 (priority 2001, published 2003).

Assays:
kainate receptors = details: cited from earlier work
excessive barking [1] = assay: Excessive barking of a Pomeranian with separation anxiety during 30 minutes after every one left the room; format: in vivo, dog (Pomeranian)
Procedure: The following experiment was performed by using an 11 years old Pomeranian (4.5 kg weight) in which a symptom of separation anxiety was confirmed.
The experimental animal was fed in a room which was equipped with an air conditioner keeping 22° C. and were provided with 200 g of canned dog food (Science Diet Maintenance, beef can, Japan Hills Colgate ) twice per day in the morning and in the evening. Water was freely provided. The animals had been habituated in the experimental cages before recording the frequency of excessive barking with a set up video camera. Excessive barking during 30 minutes after every one left the room was recorded for 2 days. The barking frequency on day 1 was 178 times and 203 times on day 2. […] The barking frequency for that recording was 0 (zero).

excessive barking [2] = assay: Excessive barking of beagles during 5 minutes before feeding after intravenous SKF97541; format: in vivo, dog (beagles); details: mean and standard error
Procedure: Two ovariectomized healthy female beagles (10 kg) of 2 years old were used for the following experiments.
(§1) The experiments was performed for seven (7) days as one cycle and the data were recorded, which were repeated for 3 months (12 cycles). The data were statistically processed. The experimental dogs were fed in a room which was equipped with an air conditioner keeping 22° C. During the first 6 days, the animals were fed with 400 g of food (Science Diet Maintenance, dry, Japan Hills Colgate) at 4 o'clock every day. Water was freely provided. The animals were habituated in the experimental cages. The seventh (7th) day in each cycle, the condition was kept except that the indicated amount of SKF97541 ([…] receptor agonist) was intravenously administrated at 2 o'clock P.M. The frequency of barking during 5 minutes before feeding was recorded every day by a video camera. The ratio of the frequency of barking on the day where the animals were received SKF97541 to the mean values of the barking frequency during the first 6 days where the animals were not received SKF97541 is indicated as percentages in Table 1 and FIG. 1.

[3] = General symptom of animals, beagle experiment; format: in vivo, dog (beagles); details: beagles, intravenous SKF97541
Procedure: as §1

In the case of `O=C1N=c2cc([N+](=O)[O-])c([N+](=O)[O-])cc2=NC1=O` [DNQX, 6,7-dinitroquinoxaline-2,3-dione], the “inhibition of running activity induced by kainate” value (kainate receptors; rat) is listed as “inhibited”.

In the case of `NCCCC(=O)O` [GABA, γ-aminobutyric acid], the “barking frequency during 30 minutes after every one left the room” value (shortened to “barking frequency during 30 minutes”) (excessive barking [1]; 150 mg powdered GABA mixed with canned dog food, oral, untreated days 178 and 203 times) is reported as 0.

With `CP(=O)(O)CCCN` [SKF97541, 3-aminopropyl(methyl)phosphinic acid] the “(frequency of barking on the administrated day) / (frequency of barking on non-administrated days)” value (excessive barking [2]; amount of administrated SKF97541 0.025 (unit not given)) was 118.2 ± 0.0%, the “(frequency of barking on the administrated day) / (frequency of barking on non-administrated days)” value (excessive barking [2]; amount of administrated SKF97541 0.05 (unit not given)) was 90.2 ± 6.2% and the “(frequency of barking on the administrated day) / (frequency of barking on non-administrated days)” value (excessive barking [2]; amount of administrated SKF97541 0.1 (unit not given)) was 44.0 ± 1.1%. The “(frequency of barking on the administrated day) / (frequency of barking on non-administrated days)” value (excessive barking [2]; amount of administrated SKF97541 0.2 (unit not given)) was 8.8 ± 8.8%, the “(frequency of barking on the administrated day) / (frequency of barking on non-administrated days)” value (excessive barking [2]; amount of administrated SKF97541 0.5 (unit not given)) was 0% and the “barking frequency during 30 minutes” value (excessive barking [1]; SKF97541 intravenous 0.05 mg/kg body weight) was “did not bark”. The “barking frequency during 30 minutes” value (excessive barking [1]; SKF97541 intravenous 0.1 mg/kg body weight) was “did not bark” and the “general symptom of animals” value [3] was “no notable point regarding to the general symptom of animals was observed”.

For `C=C(C)[C@H]1CN[C@H](C(=O)O)[C@H]1CC(=O)O` [kainate], the “induction of running activity in rat” value (kainate receptors) is given as “induced”.
